1 compound from US20050013821A1, “Mint extract and related pharmaceutical compositions” (priority 2001, published 2005) can be followed below.

The nature of series [1]: Solubility of menthol in composition ingredients. Format: physicochemical. Particulars: in liquid paraffin, white soft paraffin and essential oils.
The test system of series [2] is burning pain sensations in the vicinity of the vulva or anus. In words: Other trials of mint extract compositions (gel, cream, wipes, spray) applied topically against burning pains. The format is in vivo, human. The method, then: The composition may comprise the extract or equivalent up to 10% w/w but it is preferably present in a concentration of not more than substantially 5% w/w of the composition.
Additional to these trials, compositions were prepared using menthol (and others using peppermint oil) embodied in a light cream (which included water) with which small pieces of soft cloth were impregnated to form wipes. […] Alternative combinations of ingredients could be utilised, e.g. as known to those skilled in the art, possibly including a pharmaceutically acceptable excipient for the active ingredient/s. Preferably, the composition should contain one or more of vitamins E, A and D combined with a moisturizing element in white soft paraffin form (obtained as “Vaseline”, Registered Trade Mark in the UK) or aloe form for delicate skins. The composition should preferably be formulated so that it is effectively greaseless and non-staining. It should not contain hexachlorophene.

The structures appear in SMILES notation.

Take `CC1CCC(C(C)C)C(O)C1` (centres unmarked) [menthol]: in series [1], the solubility entry was “at least 10 % w/w”. In series [2] (light cream (including water) impregnated on pieces of soft cloth), the “outcome of trials as wipes” value is on record as “just as successful”. Further, the “relief compared with peppermint oil” value in series [2] (menthol used instead of peppermint oil) is “Much improved relief”. For the same compound, in series [2] (spray including glycols, glycerol and ethanol), the “outcome of trials as spray” value is on record as “used successfully”. Further, the “effect relative to peppermint oil” value in series [2] (summary statement, related mint extracts) was “substantially more”.
